Data from paper PMC10447463, “Data-mining unveils structure–property–activity correlation of viral infectivity enhancing self-assembling peptides” (Nature Communications, 2023).
Where two headings read alike, the source gives them in different places.

Columns and labels:
[1] = Zeta-potential measurement; assay type: physicochemical
In short: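 Charge on peptide aggregates was assessed by electrophoretic mobility in 1 mM KCl, converted per Smoluchowski. Prior aggregation: 1 mg/mL, pH 7.4 PBS, 1 d, RT.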

[2] = Turbidity, derived count rate of scattered light; assay type: physicochemical; settings: for Count Rate: derived count rate of scattered light (turbidity); for Log10 Count Rate: turbidity, derived count rate of scattered light, data of Figure 2D
[3] = tested on: HIV-1 infection of TZM-bl cells; assay: HIV-1 infectivity enhancement assay, β-galactosidase luminescence; assay type: cell-based; settings: for Rel-EFC: infection relative to EF-C (QCKIKQIINMWQ = 1); for Log10 Infection Rel EFC: log10 of infection relative to EF-C; for Log Infectivity: Log10 infection relative to EF-C, TZM-bl cells, asymmetric std dev errors; for Log10 Infection Rel EF-C: HIV-1 infection of TZM-bl cells; for Log10 of Rel to EFC (Feb2021): Log10 of infection relative to EF-C, all peptides of FigS16; for Abs. Inf.: absolute infection signal, HIV-1 on TZM-bl cells, β-galactosidase luminescence; for Log10 Inf. rel. to EF-C: log10 of HIV-1 infection of TZM-bl cells relative to EF-C (EF-C = 0)
[4] = Turbidity, derived count rate of scattered light; assay type: physicochemical; settings: for Count Rate / kcps: derived count rate of scattered light at 633 nm, 173°, from zeta-potential measurement, 0.1 mg/mL in 1 mM KCl after 1 d at 1 mg/mL in PBS, turbidity / microscopic aggregation, mean of triplicate
In short: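 One-day room-temperature aggregation at 1 mg/mL in PBS (pH 7.4) preceded measurement; samples then went into 1 mM KCl. Triplicates per sample, two independent experiments averaged.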

[5] = zeta potential of peptide assemblies
[6] = zeta-potential of peptide, source data of Figure 2C
[7] = zeta-potential of the peptide assemblies, mean, Figure 3A source data
[8] = Fig. S7 panel A (plotted against β-sheet content)
[9] = Log10 of infection rate relative to EF-C, Figure 3A source data
[10] = infection rate relative to EF-C, log10, data of Figure 2D
[11] = infection rate relative to EF-C, log10, source data of Figure 2C
[12] = Log10 of derived count rate of scattered light (turbidity)
[13] = log10 of derived count rate of scattered light (turbidity)
[14] = turbidity, Log10 of derived count rate of scattered light, Figure 3A source data
[15] = Fig. S7 panel B (plotted against CR), rounded to two decimals
[16] = turbidity, log10 of derived count rate of scattered light

Substance | Zeta-Pot. [1, 5] | Zeta-Potential / mV [1, 6] [mV] | Zeta-Potential / mV [1, 7] [mV] | Count Rate [2] | Log10 Count Rate [2] | Rel-EFC ([3]; 1.3 µM peptide) | Log10 Infection Rel EFC ([3]; 1.3 µM peptide) | Log Infectivity [3, 8] | Log10 Infection Rel EF-C [3, 9] | Log10 Infection Rel EF-C [3, 10] | Log10 Infection Rel EF-C [3, 11] | Log10 of Rel to EFC (Feb2021) [3] | Log10 Count Rate [4, 12] | Count Rate / kcps [4] [kcps] | Log10 Count Rate [4, 14] | Zeta-Pot. [1] | Log Infectivity [3, 15] | Abs. Inf. [3] | Log10 Inf. rel. to EF-C [3] | Log10 Count Rate [4, 16] | further results
CKFKFQFNMW | 18.4 | 17.67 | 18.4 | 4107 | 3.613 | 0,96 | -0,02 | -0.01766 | -0.02 | -0.01766 | -0.01766 | -0.02 | 3.613 | 4107 | 3.613 | – | – | – | – | – | Log10 Count Rate [4, 13]: 3.613
CKFKFQFNMWQ | – | 15.58 | 17.03 | 142.5 | 2.154 | 1,16 | 0,06 | 0.06446 | 0.06 | 0.06446 | 0.06446 | 0.06 | 2.154 | 143 | 2.154 | 17.03 | 0.06 | 26320 | 0.06446 | 2.154 | –
CKFQC | – | -5.253 | -17.38 | 130.4 | 2.115 | 0,02 | -1,64 | -1.643 | -1.64 | -1.643 | -1.643 | – | 2.115 | 130 | 2.115 | -17.38 | -1.64 | 496.7 | -1.643 | 2.115 | –
CKIKIQIII | – | 16.2 | 16.2 | 4953 | 3.695 | 0,98 | -0,01 | -0.01045 | -0.01 | -0.01045 | -0.01045 | -0.01 | 3.695 | 4953 | 3.695 | 16.2 | – | 22150 | -0.01045 | 3.695 | n-fold Infection, 1.3 µM ([3]; 1.3 µM peptide, n-fold infection): 41 n-fold
CKIKQIINM | – | 13.87 | 12.9 | 9058 | 3.957 | 0,5 | -0,3 | -0.3035 | -0.3 | -0.3035 | -0.3035 | -0.3 | 3.957 | 9058 | 3.957 | 12.9 | -0.3 | 11280 | -0.3035 | 3.957 | –
CKWKWQW | 14.7 | 16.02 | 14.7 | 7511 | 3.876 | 0,25 | -0,6 | -0.5951 | -0.6 | -0.5951 | -0.5951 | -0.6 | 3.876 | 7511 | 3.876 | – | – | – | – | – | Log10 Count Rate [4, 13]: 3.876; Log10 Count Rate ([4]; logarithm of count rate in kcps): 3.876
CKYKYQY | 1.49 | 3.282 | 1.49 | 1061 | 3.026 | 0,04 | -1,39 | -1.3903 | -1.39 | -1.3903 | -1.3903 | – | 3.026 | 1061 | 3.026 | – | – | – | – | – | Log10 Count Rate [4, 13]: 3.026
CRFRFQF | – | 6.218 | -2.1 | 390.5 | 2.592 | 0,34 | -0,46 | -0.4635 | -0.46 | -0.4635 | -0.4635 | -0.46 | 2.592 | 391 | 2.592 | -2.097 | -0.46 | 7508 | -0.4635 | 2.592 | –
CRFRVPF | – | 1.957 | 4.41 | 73.97 | 1.869 | 0,02 | -1,7 | -1.701 | -1.7 | -1.701 | -1.701 | – | 1.869 | 74 | 1.869 | 4.413 | -1.7 | 376.7 | -1.701 | 1.869 | –
EFEFQF | -24.5 | -14.88 | -24.5 | 405.4 | 2.608 | 0 | -2,49 | -2.485 | -2.49 | -2.485 | -2.485 | – | 2.608 | 405 | 2.608 | – | – | – | – | – | Log10 Count Rate [4, 13]: 2.608
